Measurements taken from ChEMBL document CHEMBL1135774 (J Med Chem, 2002).

Experiments:
[1] = organism: Homo sapiens; assay: Selectivity for human retinal cone PDE-6 and human corpus cavernosum PDE-5
[2] = target: cGMP-specific 3',5'-cyclic phosphodiesterase (Homo sapiens, UniProt O76074); assay: Phosphodiesterase 5 activity of human corpus cavernosum
[3] = Oral bioavailability in rat; type: ADME, organism-based; settings: in vivo
[4] = test system: Canis familiaris; assay: In vivo efficacy in dogs; type: functional; settings: Canis lupus familiaris
[5] = pKa of the compound; type: physicochemical
[6] = test system: Canis familiaris; assay: In vivo efficacy in dogs.; type: functional; settings: Canis lupus familiaris
[7] = test system: Canis familiaris; assay: In vivo effect on erectile dysfunction in dogs after intravenous dose; type: functional; settings: Canis lupus familiaris
[8] = pKa value of the compound; type: physicochemical

In the case of `COc1ccc(-c2cnc(N3Cc4c(nc5ccccc5c4O)C3c3ccc4c(c3)OCO4)nc2)cc1` (stereo not drawn), the Ratio [1] is reported as 18.5 and the Ki [2] is reported as 0.31 nM.

`COc1ccc(-c2cnc(N3Cc4c(nc5ccccc5c4O)C3c3ccc4c(c3)OCCO4)nc2)cc1` (stereo not drawn) showed a Ratio [1] of 3.07 and a Ki [2] of 0.52 nM.

`CCCc1nn(C)c2c(=O)[nH]c(-c3cc(S(=O)(=O)N4CCN(C)CC4)ccc3OCC)nc12` showed a bioavailability [3] of 11% and an ED50 [4] of 5.1 µg/kg.

Compound `Oc1ccc(-c2cnc(N3Cc4c(nc5ccccc5c4O)C3c3ccc4c(c3)CCO4)nc2)cc1` (stereo not drawn) has a Ki [2] of 1.75 nM.

With `COc1ccc(-c2cnc(N3Cc4c(nc5ccccc5c4O)[C@H]3c3ccc4c(c3)OCO4)nc2)cc1OC` the Ratio [1] was 0.59, the pKa [5] was 9 and the ED50 [6] was 22.4 µg/kg. It also gave a Ki [2] of 0.21 nM.

For `COc1ccc(-c2cnc(N3Cc4c(nc5ccccc5c4O)C3c3ccc4c(c3)CCO4)nc2)cc1` (stereo not drawn), the Ratio [1] was 55.9, the bioavailability [3] was 20% and the Ki [2] was 0.4 nM.

Compound `COc1ccc(-c2cnc(N3Cc4c(nc5ccccc5c4O)C3c3ccc4c(c3)CCC4)nc2)cc1OC` (stereo not drawn) has a Ratio [1] of 2.14 and a Ki [2] of 1.14 nM.

Compound `Oc1c2c(nc3ccccc13)C(c1ccc3c(c1)CCO3)N(c1ncccn1)C2` (stereo not drawn) has a Ratio [1] of 310 and a Ki [2] of 1.08 nM.

`Oc1c2c(nc3ccccc13)C(c1ccc3c(c1)CCO3)N(c1ncc(-c3ccc(OCCN4CCOCC4)cc3)cn1)C2` (stereo not drawn) gave a Ki [2] of 0.29 nM.

With `CCN(CC)CCOc1ccc(-c2cnc(N3Cc4c(nc5ccccc5c4O)C3c3ccc4c(c3)CCO4)nc2)cc1` (stereo not drawn) the Ki [2] was 0.53 nM.

Compound `COc1ccc(-c2cnc(N3Cc4c(nc5ccccc5c4O)C3c3ccc(OC)c(OC)c3)nc2)cc1OC` (stereo not drawn) has a Ki [2] of 24.7 nM.

With `COc1ccc(-c2cnc(N3Cc4c(nc5ccccc5c4O)[C@H]3c3ccc4c(c3)CCO4)nc2)cc1` the Ratio [1] was 27, the ED50 [7] was 9.6 µg/kg and the Ki [2] was 0.23 nM.

`COc1ccc(-c2cnc(N3CC(=O)c4c([nH]c5ccccc45)C3c3ccc4c(c3)OCO4)nc2)cc1OC` (stereo not drawn) showed a pKa [8] of roughly 14 and a Ki [2] of 8.86 nM.

`Oc1c2c(nc3ccccc13)C(c1ccc3c(c1)OCO3)N(c1ncccn1)C2` (stereo not drawn) gave a Ratio [1] of 7.4 and a Ki [2] of 1.2 nM.
